1 compound from patent publication US20120270935A1, “FORMULATIONS” (priority 2009, published 2012) can be followed below.

Experiment [1] has as its system S. epidermidis NCTC 11047. The experiment in a line: MIC assay. Particulars: Mueller-Hinton broth pH 7.0. In kind it is cell-based, Staphylococcus epidermidis. The text has this: (a) staphylococci. The Staphylococcus aureus strain used was ATCC 29213. S. aureus and other staphylococci are common causes of a wide range of skin, skin structure and wound infections; S. aureus is also known to exacerbate eczema. The ATCC 29213 strain is known to be susceptible to beta-lactam antibiotics such as methicillin. The Staphylococcus epidermidis strain used was NCTC 11047. Staph. epidermidis forms part of the resident flora of skin and is an opportunistic pathogen which can cause biofilms to grow for instance on plastic surgical implants such as catheters. […]
This is a standard international method for quantitatively assessing the antimicrobial activity of a compound in a liquid medium. […]
The wells were inoculated with a liquid suspension of freshly grown micro-organism and incubated under the conditions described above. […] The MIC value was recorded as the lowest concentration of test compound required to inhibit microbial growth, ie the lowest concentration for which the liquid in the well remained clear. […]
Example 8 was repeated (except for the supplemented DDA assays), using S. aureus ATCC 29213 as the test organism. […] In the DDA assays, 200 μg is of each compound was loaded onto each disc: the culture medium was Mueller-Hinton agar at pH 7.0, and results were recorded after overnight incubation at 37° C. in air. […]

Experiment [2] deals with S. pyogenes ATCC 12344. The experiment in a line: Disc diffusion assay (DDA). The experiment is classed as cell-based, Streptococcus pyogenes. Particulars: 200 μg per disc; Mueller-Hinton agar pH 7.0; 48 hours at 37° C., 5% carbon dioxide. The source says: (a) staphylococci. The Staphylococcus aureus strain used was ATCC 29213. S. aureus and other staphylococci are common causes of a wide range of skin, skin structure and wound infections; S. aureus is also known to exacerbate eczema. The ATCC 29213 strain is known to be susceptible to beta-lactam antibiotics such as methicillin. The Staphylococcus epidermidis strain used was NCTC 11047. Staph. epidermidis forms part of the resident flora of skin and is an opportunistic pathogen which can cause biofilms to grow for instance on plastic surgical implants such as catheters. Unless otherwise stated, the staphylococci were cultured and maintained on Mueller-Hinton Medium (agar and broth) at pH 7.2; cultures were incubated aerobically at 37° C. for 19-20 hours, at pH 7 (±0.2). (b) C. striatum NCTC 764. Corynebacterium striatum is closely related to organisms (aerobic diphtheroids of the genus Corynebacterium) that cause body odour. It was cultured and maintained on Mueller-Hinton medium (agar and broth). All cultures were incubated aerobically at 37° C. for 72 hours, at pH 7 (±0.2). (c) streptococci. The strains tested were S. mutans ATCC 25175 and S. pyogenes ATCC 12344. […] The diameter of this zone of “inhibition” was measured using a ProtoCOL™ automated zone sizer (Synbiosis, Cambridge, UK). […]

The term MIC denotes the least concentration at which growth counts as inhibited. The low end stands for greater potency, the high end for weaker potency.

Turning to `CC(=O)c1c([O-])c(C)c([O-])c2c1OC1=CC(=O)C(C(C)=O)C(=O)C12C.[Cu+2]` (centres unmarked) [Copper usnate, copper (II) usnate], the MIC in experiment [1] came to 0.98 µg/mL. The DDA zone diameter in experiment [2] was 31.3 ± 0.6 mm.
